target: T1, human JAK3 kinase domain (Homo sapiens, UniProt P52333); experiment: JAK3 inhibition test; format: biochemical; conditions: 20 μM ATP in substrate solution, Biotin-Lyn-Substrate-2, one hour at ambient temperature; compounds of the Examples
T1 construct: attached to the N-terminal of the 796-1124 (C-terminal) fragment of the human JAK3 protein; His-tag (N); purchased Carna Biosciences, Inc. (Kobe, Japan); host or cells: baculovirus expression system
Experimental: The JAK3 inhibition test was performed as described below
Purified human JAK3 kinase domain was purchased from Carna Biosciences, Inc. (Kobe, Japan). This was afforded as described below.
As an assay buffer, 15 mM Tris-HCl pH 7.5 containing 0.01% Tween 20 and 2 mM DTT (dithiothreitol) was used.
After incubation at ambient temperature for one hour, the plate was washed with a cleaning buffer (50 mM Tris-HCl pH 7.5, 150 mM NaCl, 0.02% Tween 20), and a blocking buffer (a cleaning buffer containing 0.1% bovine serum albumin) was added to the plate. After incubation at ambient temperature for 30 minutes, the blocking buffer was removed, and an HRP-PY-20 solution (afforded by diluting HRP-PY-20 solution with the blocking buffer 500 times) was added. After incubation at ambient temperature for 30 minutes, the plate was washed four times, and a TMB substrate solution (Sigma) was added to the plate. After incubation at ambient temperature for 4 minutes, 1M sulfuric acid was added to stop the reaction. Enzyme activity was measured as absorbance at 450 nm.

T1 sequence (P52333 796-1124): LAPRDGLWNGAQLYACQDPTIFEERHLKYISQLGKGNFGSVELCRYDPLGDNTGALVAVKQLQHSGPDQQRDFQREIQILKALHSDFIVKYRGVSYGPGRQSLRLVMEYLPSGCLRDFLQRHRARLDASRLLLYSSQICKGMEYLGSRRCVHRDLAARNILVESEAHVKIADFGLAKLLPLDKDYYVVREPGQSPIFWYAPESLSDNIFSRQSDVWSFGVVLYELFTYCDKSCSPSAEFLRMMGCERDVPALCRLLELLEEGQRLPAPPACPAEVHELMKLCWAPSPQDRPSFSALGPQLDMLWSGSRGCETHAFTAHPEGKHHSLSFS

Row | Structure (SMILES) | IC50
1 | C[C@@H]1CCN(C(=O)N2C[C@@H](F)C[C@H]2C#N)C[C@@H]1n1c(=O)[nH]c2cnc3[nH]ccc3c21 (mixture of isomers) [Example 2, (2R,4R)-4-fluoro-1-{[(3S,4S)-4-methyl-3-(2-oxo-3,6-dihydroimidazo[4,5-d]pyrrolo[2,3-b]pyridine-1(2H)-yl)-piperidine-1-yl]carbonyl}pyrrolidine-2-carbonitrile and (2R,4R)-4-fluoro-1-{[(3R,4R)-4-methyl-3-(2-oxo-3,6-dihydroimidazo[4,5-d]pyrrolo[2,3-b]pyridine-1(2H)-yl)-piperidine-1-yl]carbonyl}pyrrolidine-2-carbonitrile] | 0.86 nM
2 | N#Cc1ccc(N2CC[C@@H](Nc3c(C(N)=O)cnc4[nH]ccc34)[C@@H](F)C2)nn1 (racemic) [Example 6, 4-{[(3S,4R)-1-(6-cyanopyridazine-3-yl)-3-fluoropiperidine-4-yl]amino}-1H-pyrrolo[2,3-b]pyridine-5-carboxamide and 4-{[(3R,4S)-1-(6-cyanopyridazine-3-yl)-3-fluoropiperidine-4-yl]amino}-1-1H-pyrrolo[2,3-b]pyridine-5-carboxamide] | 0.76 nM
3 | C[C@@H]1CCN(C(=O)CC#N)C[C@@H]1n1nc(N)c2cnc3[nH]ccc3c21 (racemic) [Example 21] | 0.52 nM
4 | C[C@@H]1CCN(C(=O)CC#N)C[C@@H]1n1[nH]c(=O)c2cnc3[nH]ccc3c21 (racemic) [Example 22] | 1.7 nM
5 | N#Cc1ccc(N2CC[C@@H](Nc3c(C(N)=O)cnc4[nH]ccc34)[C@@H](F)C2)nc1 (racemic) [Example 41] | 1.1 nM
6 | C[C@H]1CN(c2ccc(C#N)cn2)CC[C@H]1Nc1c(C(N)=O)cnc2[nH]cnc12 (racemic) [Example 49] | 2.2 nM
7 | C[C@@H]1CN(c2ccc(C#N)cn2)CC[C@@H]1Nc1c(C(N)=O)cnc2[nH]ccc12 (racemic) [Example 65] | 0.78 nM
8 | C[C@@H]1CN(c2ccc(C#N)nn2)CC[C@@H]1Nc1c(C(N)=O)cnc2[nH]ccc12 (racemic) [Example 66] | 1 nM
9 | C[C@@H]1CCN(c2ccc(C#N)cn2)C[C@@H]1n1[nH]c(=O)c2cnc3[nH]ccc3c21 (racemic) [Example 72] | 1.6 nM
10 | CNC(=O)C(=O)Nc1nn([C@H]2CN(c3ccc([N+](=O)[O-])cn3)CC[C@H]2C)c2c1cnc1[nH]ccc12 (racemic) [Example 77] | 4.8 nM
11 | N#Cc1ccc(N2CC[C@@H](Nc3c(C(N)=O)cnc4[nH]ccc34)[C@H](F)C2)nc1 (racemic) [Example 82] | 2.7 nM
12 | NC(=O)c1cnc2[nH]ccc2c1N[C@@H]1CCN(c2ccc(C(F)(F)F)nn2)C[C@@H]1F (racemic) [Example 91] | 3.2 nM
13 | C[C@@H]1CCN(C(=O)N2CCC=N2)C[C@@H]1n1c(=O)[nH]c2cnc3[nH]ccc3c21 (racemic) [Example 110] | 10 nM
14 | Nc1nn(C2CCCCCC2)c2c1cnc1[nH]ccc12 [Example 12, 1-cycloheptyl-1,6-dihydropyrazolo-[3,4-d]pyrrolo[2,3-b]pyridine-3-amine] | 10 nM
15 | N#Cc1ccc(N2CCC(Nc3c(C(N)=O)cnc4[nH]ccc34)CC2)cc1 [Example 58] | 3.4 nM
16 | N#Cc1ccc(N2CC[C@@H](Nc3c(C(N)=O)cnc4[nH]ccc34)[C@@H](F)C2)nc1 [Example 94] | 0.3 nM
17 | CC[C@@H]1CCCC[C@@H]1n1nc(N)c2cnc3[nH]ccc3c21 [Example 129] | 3.8 nM

same assay, conditions: reference compounds produced according to the cited publications, compared in the JAK3 test

Row | Structure (SMILES) | IC50
18 | C[C@@H]1CCN(S(=O)(=O)c2cccnc2)C[C@@H]1N(C)c1ccnc2[nH]ccc12 [Reference compound A, reference compound] | 230 nM
19 | CS(=O)(=O)N1CCCC(Nc2c(Cl)cnc3[nH]ccc23)C1 (centres unmarked) [Reference compound B, reference compound] | 31 nM

target: HERG (Homo sapiens, UniProt Q12809); experiment: HERG assay; conditions: low adverse effect
Sequence (Q12809 whole entry): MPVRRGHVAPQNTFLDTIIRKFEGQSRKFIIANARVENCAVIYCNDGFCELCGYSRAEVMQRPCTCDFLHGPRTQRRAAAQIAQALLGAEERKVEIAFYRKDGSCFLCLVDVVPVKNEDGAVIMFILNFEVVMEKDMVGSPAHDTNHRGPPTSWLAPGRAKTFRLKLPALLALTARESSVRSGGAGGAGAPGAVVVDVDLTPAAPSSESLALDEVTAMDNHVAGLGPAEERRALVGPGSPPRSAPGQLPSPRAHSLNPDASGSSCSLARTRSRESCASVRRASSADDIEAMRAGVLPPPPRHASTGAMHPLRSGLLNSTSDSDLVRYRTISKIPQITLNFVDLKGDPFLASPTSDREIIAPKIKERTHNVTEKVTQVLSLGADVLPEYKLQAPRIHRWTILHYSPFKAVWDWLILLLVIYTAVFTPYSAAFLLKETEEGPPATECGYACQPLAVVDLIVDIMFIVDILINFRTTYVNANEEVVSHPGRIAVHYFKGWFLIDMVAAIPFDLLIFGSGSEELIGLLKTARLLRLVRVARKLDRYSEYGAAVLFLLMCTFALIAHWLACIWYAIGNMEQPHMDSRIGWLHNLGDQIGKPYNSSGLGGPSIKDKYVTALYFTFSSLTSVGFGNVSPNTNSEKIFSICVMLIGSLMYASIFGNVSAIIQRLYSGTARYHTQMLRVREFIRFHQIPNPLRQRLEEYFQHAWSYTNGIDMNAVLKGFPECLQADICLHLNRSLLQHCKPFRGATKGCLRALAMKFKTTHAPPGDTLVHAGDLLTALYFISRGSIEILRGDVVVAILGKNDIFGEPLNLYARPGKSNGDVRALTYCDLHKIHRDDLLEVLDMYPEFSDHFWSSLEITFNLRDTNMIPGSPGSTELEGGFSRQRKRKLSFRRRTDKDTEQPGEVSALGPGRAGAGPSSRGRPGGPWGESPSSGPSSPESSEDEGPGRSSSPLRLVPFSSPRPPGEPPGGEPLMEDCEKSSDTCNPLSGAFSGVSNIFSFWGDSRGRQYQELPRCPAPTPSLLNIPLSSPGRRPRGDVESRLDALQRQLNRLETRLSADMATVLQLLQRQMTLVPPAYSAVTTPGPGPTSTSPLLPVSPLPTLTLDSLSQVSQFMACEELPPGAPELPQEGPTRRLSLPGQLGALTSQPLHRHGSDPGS

Row | Structure (SMILES) | IC50
20 | N#Cc1ccc(N2CC[C@@H](Nc3c(C(N)=O)cnc4[nH]ccc34)[C@@H](F)C2)nc1 (racemic) [Example 41] | ≥ 100000 nM
